From patent publication US20210038668A1, “TRADITIONAL CHINESE MEDICINE COMPOSITION FOR PREVENTING AND/OR TREATING ISCHEMIC REPERFUSION INJURY” (TASLY PHARMACEUTICAL GROUP CO., LTD., priority 2018, published 2021) come the findings set out here.

Type in all cases: in vivo, C57BL/6 mice
The test system of assay [1] is TUNEL positive cells of cerebral cortex in penumbra. Briefly: TUNEL staining of brain tissue. The note with it: brain tissue 24 hours after administration; tPA 10 mg/kg alone; T541 20 mg/kg + tPA 10 mg/kg. As to the method: After reperfused for 24 hours, mice were killed to take brain, so as to observe the degree of cerebral hemorrhage and infarct size, measure the hemoglobin content in brain tissues after bleeding, detect dry/wet weight ratio and Evans Blue leakage of brain tissues, reflect the condition of tissue edema, observe the severity order of apoptosis by TUNEL staining brain tissues, observe the change of blood brain barrier of the blood vessel when injured by making Western blotting analysis on connexins Occludin, JAM-1, ZO-1, VE-cadherin and laminin, namely, the component of basement membrane and by conducting immunofluorescent staining on partial connexins and laminin, detect the change of the structure after cerebral ischemia reperfusion by a scanning electron microscope and IEM, and measure the change on the activity of brain tissues MDA, 8-OHdG, ATP/ADP/AMP and mitochondrial complexes I, II and IV by enzyme-linked immunosorbent assay (ELISA).

The next assay deals with mitochondrial complex II. Kind of assay: Mitochondrial complex II activity in brain tissue. The conditions noted are these: brain tissue 24 hours after administration; tPA 10 mg/kg alone or + T541 20 mg/kg or ingredients at Table 7 doses. From the text: To compare the therapeutical effect on reperfusion injury caused by tPA thrombolysis between the traditional Chinese medicinal composition of the present invention and each ingredient (total saponins of Astragalus, the experiment was divided into the following group (tPA is combined with T541, individual ingredient thereof and compatibility of any two ingredients) specifically as follows: tPA+total saponins of Astragalus (tPA+HQ), tPA+ salvianolic acids (tPA+DS), tPA+Panax notoginseng saponins (tPA+SQ), tPA+ total saponins of Astragalus+salvianolic acids (tPA+HQ+DS), tPA+ total saponins of Astragalus+Panax notoginseng saponins (tPA+HQ+SQ), tPA+ salvianolic acids+Panax notoginseng saponins (tPA+DS+SQ) and tPA+T541. Normal saline served as an isovolumetric control. The usage number in each group is 6.
ELISA adsorption kit was used to measure the change on the content of MDA, 8-hydroxyl-2′-deoxyguanosine (8-OHdG), adenosine triphosphate (ATP), adenosine diphosphate (ADP) and adenosine monophosphate (AMP) in the penumbra field of brain tissue cortex of the mode, and the change on the activity of mitochondrial complexes I, II, IV and V. 6 samples were used to repeat the independent experiment for at least three times for each group of data.

The next assay relates to Occludin. Briefly: Western blotting of Occludin, cortex of ischemic penumbra. The conditions noted are these: brain tissue 24 hours after administration, sham = 1.00; tPA 10 mg/kg alone; T541 20 mg/kg + tPA 10 mg/kg. The method, then:
(§1) After reperfused for 24 hours, mice were perfused by normal saline; Western blotting analysis was conducted to the penumbra field of infarcted right cerebral cortex. After perfused, mice brain tissue was taken out; cerebellum and prefrontal lobe were cut off; the brain tissue of right brain close to 1 cm of the central joint of left and right hemispheres along the sagittal view; infarcted penumbra field of the rest tissues was cut off along an 45° angle; the cerebral cortex of the penumbra field was peeled off and preserved at low temperature. Right cerebral cortex was taken and added 1×RIPA lysate and a Cocktail protease inhibitor (1:100, Cell Signaling Technology, US) for full pyrolysis and ultrasonic treatment, and then 17000 g were centrifuged for 30 minutes. Supernatant was taken and added 5×loading buffer by volume, boiled for 20 minutes in boiling water, and then preserved at −80° C. Excessive supernatant was taken out and quantified by a BCA protein quantification liquor (ThermoScientific, US) to measure absorbance value at 560 nm of ELIASA and to calculate the protein concentration according to a standard curve. […] The density of electrophoretic strips was analyzed by an image analysis software Quantityone. […]

For a further assay, the system named is JAM-1. Kind of assay: Western blotting of JAM-1, cortex of ischemic penumbra. The conditions noted are these: brain tissue 24 hours after administration, sham = 1.00; tPA 10 mg/kg alone; T541 20 mg/kg + tPA 10 mg/kg. The method, then: as §1

“tPA: tissue-type plasminogen activator (tPA) for thrombolysis”: in assay [1], the “TUNEL positive cell counting” value is listed as 27.14 ± 1.77. Moreover, in the assay with mitochondrial complex II, the “Complex II activity” value is recorded as 0.025 ± 0.005. The Occludin/β-actin in the assay on Occludin is given as 0.38 ± 0.02. Moreover, the JAM-1/β-actin in the assay with JAM-1 amounted to 0.52 ± 0.04.
